Results published in the supplement of paper PMC11451515.

System: NOMO1
Assay: cell viability relative to DMSO control; higher = less cytotoxic
Conditions: 48 h
Method in brief: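 Viability was expressed as a per-plate percentage of DMSO wells, with cell-free wells as background. Leukemia cells (NOMO1 or SEM at 500 cells/well, P12-Ichikawa at 1000 cells/well) were adapted for at least four passages in each medium and seeded in 1536-well plates (5 μl). Library compounds in DMSO were pin-dosed over an 11-point threefold series from 47 μM to 0.79 nM, and CellTiter-Glo One luminescence was read after 48 h at 37°C.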

[1] = HPLM + 10% dialyzed FBS, 0.000781 µM
[2] = HPLM + 10% dialyzed FBS, 0.00234 µM
[3] = HPLM + 10% dialyzed FBS, 0.00702 µM
[4] = HPLM + 10% dialyzed FBS, 0.0211 µM
[5] = HPLM + 10% dialyzed FBS, 0.0632 µM
[6] = HPLM + 10% dialyzed FBS, 0.19 µM
[7] = HPLM + 10% dialyzed FBS, 0.569 µM
[8] = HPLM + 10% dialyzed FBS, 1.71 µM
[9] = HPLM + 10% dialyzed FBS, 5.12 µM
[10] = HPLM + 10% dialyzed FBS, 15.4 µM
[11] = HPLM + 10% dialyzed FBS, 46.1 µM
[12] = RPMI 5 mM glucose + 10% FBS, 0.000781 µM
[13] = RPMI 5 mM glucose + 10% FBS, 0.00234 µM
[14] = RPMI 5 mM glucose + 10% FBS, 0.00702 µM
[15] = RPMI 5 mM glucose + 10% FBS, 0.0211 µM
[16] = RPMI 5 mM glucose + 10% FBS, 0.0632 µM
[17] = RPMI 5 mM glucose + 10% FBS, 0.19 µM
[18] = RPMI 5 mM glucose + 10% FBS, 0.569 µM
[19] = RPMI 5 mM glucose + 10% FBS, 1.71 µM
[20] = RPMI 5 mM glucose + 10% FBS, 5.12 µM
[21] = RPMI 5 mM glucose + 10% FBS, 15.4 µM
[22] = RPMI 5 mM glucose + 10% FBS, 46.1 µM
[23] = RPMI 5 mM glucose + 10% dialyzed FBS, 0.000781 µM
[24] = RPMI 5 mM glucose + 10% dialyzed FBS, 0.00234 µM
[25] = RPMI 5 mM glucose + 10% dialyzed FBS, 0.00702 µM
[26] = RPMI 5 mM glucose + 10% dialyzed FBS, 0.0211 µM
[27] = RPMI 5 mM glucose + 10% dialyzed FBS, 0.0632 µM
[28] = RPMI 5 mM glucose + 10% dialyzed FBS, 0.19 µM
[29] = RPMI 5 mM glucose + 10% dialyzed FBS, 0.569 µM
[30] = RPMI 5 mM glucose + 10% dialyzed FBS, 1.71 µM
[31] = RPMI 5 mM glucose + 10% dialyzed FBS, 5.12 µM
[32] = RPMI 5 mM glucose + 10% dialyzed FBS, 15.4 µM
[33] = RPMI 5 mM glucose + 10% dialyzed FBS, 46.1 µM

Compound	cell viability [1] [%]	cell viability [2] [%]	cell viability [3] [%]	cell viability [4] [%]	cell viability [5] [%]	cell viability [6] [%]	cell viability [7] [%]	cell viability [8] [%]	cell viability [9] [%]	cell viability [10] [%]	cell viability [11] [%]	cell viability [12] [%]	cell viability [13] [%]	cell viability [14] [%]	cell viability [15] [%]	cell viability [16] [%]	cell viability [17] [%]	cell viability [18] [%]	cell viability [19] [%]	cell viability [20] [%]	cell viability [21] [%]	cell viability [22] [%]	cell viability [23] [%]	cell viability [24] [%]	cell viability [25] [%]	cell viability [26] [%]	cell viability [27] [%]	cell viability [28] [%]	cell viability [29] [%]	cell viability [30] [%]	cell viability [31] [%]	cell viability [32] [%]	cell viability [33] [%]
O=C(Nc1c[nH]nc1-c1nc2cc(CN3CCOCC3)ccc2[nH]1)NC1CC1	91.3	111	113	95.6	81.1	102	104	104	97.9	51	3.89	85.9	103	97.1	85.5	56.3	55.3	78.7	84.9	89.4	61.2	4.23	88.3	102	92.6	93.7	67.1	66.7	84	83	86.7	54.5	4.36
CCCC(C)(COC(N)=O)COC(=O)NC(C)C (stereo not drawn)	107	123	125	138	143	131	127	130	123	141	140	116	122	132	127	145	130	127	125	137	150	129	–	–	–	–	–	–	–	–	–	–	–
CN(C)C1=CC(=CC=C1)C\2=C\3C(=O)N(NC3=C/C(=O)N2C)C4=CC=CC=C4Cl	113	109	127	116	120	105	60.4	7.34	5.72	4.4	5.35	118	105	122	121	116	103	93	19.7	5.29	5.8	5.56	118	108	114	116	143	112	83.4	28.3	10.1	7.91	8.18
O=C/1NC(=O)C(=C1C2=CN=C3C=CC=C[N]23)/C4=C[N]5CCN(CC6=C5C4=CC=C6)C(=O)N7CCOCC7	–	–	–	–	–	–	–	–	–	–	–	109	121	137	136	140	146	144	127	144	128	144	–	–	–	–	–	–	–	–	–	–	–
Cc1ccccc1C(OCCN(C)C)c1ccccc1 (stereo not drawn)	102	117	145	138	135	143	142	122	116	125	57.5	121	112	120	120	120	115	125	125	127	117	116	–	–	–	–	–	–	–	–	–	–	–
CC(C)=CCC/C(C)=C/CC/C(C)=C/CC/C(C)=C/CC/C(C)=C/CC/C(C)=C/CC/C(C)=C/CC/C(C)=C/CC/C(C)=C/CO	117	123	105	92.7	107	114	112	117	100	96.6	102	95.7	96.3	108	100	101	105	115	104	92.6	92.8	88.3	92.2	91	111	93.6	103	113	94.4	95.6	91.6	87.7	86.9
c1ccc2c(Cc3c[nH]c4ccccc34)c[nH]c2c1	95	106	108	93.6	112	112	95.5	89.7	87.4	80.4	54	89.8	98.3	87.8	101	97.7	86.8	96.1	89.8	85.2	85.8	78.9	99	92	106	104	93.3	97.7	93.2	94.2	88.5	84	57.1
CN(C)c1ccc2nc3ccc(N(C)C)cc3[s+]c2c1	115	94.5	122	97.9	106	90.7	102	91.1	73.2	25.9	12.1	96	91.9	89.2	92.1	93.4	93.6	100	86.4	78.1	7.62	3.06	102	99.7	99.6	87.4	94.2	86.7	102	86.5	65	10.1	3.9
Cc1ccc(C(=O)Nc2cccc(C(F)(F)F)c2)cc1-c1ccc2nc(NCCN3CCOCC3)ncc2c1	128	122	111	118	118	126	117	108	50.7	29.5	10.8	115	106	125	113	123	114	116	103	57.3	32.7	10.3	129	116	115	124	118	113	114	102	54.2	33.4	11.6
CC(=O)OC[C@H]1O[C@@H]([S-])[C@H](OC(C)=O)[C@@H](OC(C)=O)[C@@H]1OC(C)=O.CCP(CC)CC.[Au+]	80.7	84.3	96.5	92	75.9	93.7	96.7	93.8	31.5	7.92	5.33	86.7	99.2	85.4	96.4	98.4	104	106	89.8	18.8	6.15	5	88.3	96.7	90.5	96.2	91.7	94.5	95.4	88.7	40.8	5.52	4.43
N#C/C(=C\c1ccc(O)c(O)c1)C(=O)NCc1ccccc1	103	111	124	110	98.6	118	122	98.5	91.7	92.8	64.7	100	93.2	84.5	93.3	106	92.1	86.7	91.3	96.5	97.6	89	98	103	110	105	102	110	99.3	108	89.7	95.4	83.8
CC\12CCC(=O)\C=C1CCC3C2CCC4(C)C3CCC4(O)C#C (stereo not drawn)	98.9	101	106	91.1	112	100	98.3	98.8	77.5	86.4	88	89.9	93.2	97.4	103	86.6	94.9	88.8	84	87.2	88.1	74.7	99.8	101	95.8	95.5	99.6	96.1	74.9	79.2	73.9	83.5	85.7
CC(C)N(C[C@H]1O[C@@H](n2cnc3c(N)ncnc32)[C@H](O)[C@@H]1O)[C@H]1C[C@@H](CCc2nc3cc(C(C)(C)C)ccc3[nH]2)C1	96.9	98.5	111	109	110	109	113	79.3	36.1	65.5	7.55	84	92.4	113	91.5	91.8	115	94.9	113	99.1	93.3	9	74.4	95.6	97.2	91.8	95.3	103	102	99.9	86.6	96.1	6.04
COc1ccc(C(CN(C)C)C2(O)CCCCC2)cc1 (stereo not drawn)	101	125	124	125	115	127	120	104	124	94.5	95.3	44.9	118	122	118	113	120	104	104	107	97.2	109	46.1	111	111	117	105	104	96.4	109	97.9	111	100
